Experimental data taken from paper PMC4977465, “Repositioning organohalogen drugs: a case study for identification of potent B-Raf V600E inhibitors via docking and bioassay” (Scientific Reports, 2016).
Like-named read-outs stand apart in the source and are kept apart here. Each block holds one compound with its values, some of them ahead of it.

How the values were obtained:
Type in all cases: biochemical
B-Raf V600E = B-Raf V600E (Homo sapiens, UniProt P15056, V600E); experiment: ELISA-based assay of inhibitory activity against B-Raf V600E (MEK to p-MEK); settings: for inhibition at 10 µM: read-out: Inhibition Rate (at 10 μM)
wild type B-Raf = wild type B-Raf (Homo sapiens, UniProt P15056); experiment: ELISA-based assay, wild type B-Raf
B-Raf S602A = biological target: T1, B-Raf S602A (Homo sapiens, UniProt P15056, S602A); experiment: ELISA-based assay, single point mutant B-Raf S602A
T1 construct: B-RAFT508A and B-RAFS602A, residues 433–726; made in house; host or cells: Sf9 insect cells (pFastBac Dual)
Source text: (§1) The mutant sequence of human BRAF kinase domain (B-RAFT508A and B-RAFS602A, residues 433–726) was inserted into the plasmid of pFastBacTM Dual. Then the recombinant plasmid was transported into the sf9 cells. Mutant protein was expressed and purified respectively.

B-Raf T508A = biological target: T2, B-Raf T508A (Homo sapiens, UniProt P15056, T508A); experiment: ELISA-based assay, single point mutant B-Raf T508A
T2 construct: B-RAFT508A and B-RAFS602A, residues 433–726; made in house; host or cells: Sf9 insect cells (pFastBac Dual)
Source text: as §1

Sequence of B-Raf V600E (P15056 whole entry V600E): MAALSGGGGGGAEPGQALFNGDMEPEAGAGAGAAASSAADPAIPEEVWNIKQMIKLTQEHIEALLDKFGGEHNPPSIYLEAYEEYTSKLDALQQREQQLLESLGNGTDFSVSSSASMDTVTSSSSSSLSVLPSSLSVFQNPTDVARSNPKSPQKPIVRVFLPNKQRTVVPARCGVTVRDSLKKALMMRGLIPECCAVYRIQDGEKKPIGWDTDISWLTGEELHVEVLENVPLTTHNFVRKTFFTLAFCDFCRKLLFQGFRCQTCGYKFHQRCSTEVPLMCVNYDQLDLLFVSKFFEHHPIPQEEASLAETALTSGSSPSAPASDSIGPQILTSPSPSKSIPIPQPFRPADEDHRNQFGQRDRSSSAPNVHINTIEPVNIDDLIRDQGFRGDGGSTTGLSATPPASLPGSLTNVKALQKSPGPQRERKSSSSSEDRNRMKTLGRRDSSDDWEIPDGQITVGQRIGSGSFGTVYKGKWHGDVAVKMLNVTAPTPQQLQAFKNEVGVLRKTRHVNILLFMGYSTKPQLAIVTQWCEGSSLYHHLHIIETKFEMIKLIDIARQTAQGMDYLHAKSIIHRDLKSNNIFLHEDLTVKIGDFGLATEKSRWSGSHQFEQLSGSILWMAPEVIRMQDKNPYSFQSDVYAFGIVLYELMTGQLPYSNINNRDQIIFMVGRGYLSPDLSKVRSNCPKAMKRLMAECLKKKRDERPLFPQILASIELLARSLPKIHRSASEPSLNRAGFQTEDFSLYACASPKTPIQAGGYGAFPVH
T2 sequence (P15056 433-726 T508A): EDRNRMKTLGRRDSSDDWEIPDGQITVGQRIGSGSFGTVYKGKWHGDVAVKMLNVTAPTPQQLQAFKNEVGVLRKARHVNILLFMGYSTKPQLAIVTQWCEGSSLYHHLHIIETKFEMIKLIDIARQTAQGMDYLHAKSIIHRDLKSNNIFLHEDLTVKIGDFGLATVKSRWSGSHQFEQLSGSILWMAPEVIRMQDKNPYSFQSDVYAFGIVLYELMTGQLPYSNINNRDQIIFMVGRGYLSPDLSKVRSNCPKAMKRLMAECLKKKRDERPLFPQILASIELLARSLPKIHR
T1 sequence (P15056 433-726 S602A): as the sequence (P15056 433-726 T508A) above, with A76T, S170A counted along it
Sequence of wild type B-Raf (P15056 whole entry): as the sequence (P15056 whole entry V600E) above, with E600V counted along it

inhibition at 10 µM (B-Raf V600E; B-Raf V600E, 10 μM): 82.5%
SMILES: CCCS(=O)(=O)Nc1ccc(F)c(C(=O)c2c[nH]c3ncc(Cl)cc23)c1F [PLX4720]

SMILES: Cc1cc(C(C#N)c2ccc(Cl)cc2)c(Cl)cc1NC(=O)c1cc(I)cc(I)c1O (centres unmarked) [closantel]
IC50 (wild type B-Raf; wild type B-Raf, read-out: IC50 B-RAF WT): 1.89 µM
IC50 (B-Raf V600E; B-Raf V600E, read-out: IC50 B-RAF V600E): 1.9 µM
inhibition at 10 µM (B-Raf V600E): 83.9%
IC50 (B-Raf S602A; B-Raf S602A mutant, read-out: IC50 B-RAF S602A): 6.35 µM
IC50 (B-Raf T508A; B-Raf T508A mutant, read-out: IC50 B-RAF T508A): 5.97 µM

SMILES: CC1(C)C(C=C(Cl)Cl)C1C(=O)OC(C#N)c1cccc(Oc2ccccc2)c1 (centres unmarked) [cypermethrin]
activity against B-Raf V600E (in words) (B-Raf V600E; ELISA-based assay, 10 μM): inactive
inhibition at 10 µM (B-Raf V600E): 17.6%

SMILES: O=C(Nc1ccc(Oc2ccc(Cl)cc2)c(Cl)c1)c1cc(I)cc(I)c1O [rafoxanide]
IC50 (wild type B-Raf): 1.94 µM
IC50 (B-Raf V600E): 0.07 µM
inhibition at 10 µM (B-Raf V600E): 73.2%
IC50 (B-Raf S602A): 11.4 µM
IC50 (B-Raf T508A): 15.7 µM

inhibition at 10 µM (B-Raf V600E; B-Raf V600E, 10 μM): 82.9%
SMILES: CCCS(=O)(=O)Nc1ccc(F)c(C(=O)c2c[nH]c3ncc(-c4ccc(Cl)cc4)cc23)c1F [vemurafenib]
